#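 Each compound was tested at five concentrations against cells in 96-well plates for 48 hours. Here, GI50 denotes the concentration required for 50% inhibition of growth. TGI: concentration producing complete growth inhibition.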
# What was measured:
# Experiment in all cases: inhibition of tumour cell growth, NCI panel, 48 h
# [1] = test system: HT29 colon
# [2] = test system: UACC-257 melanoma
# [3] = test system: RXF 393 renal
# [4] = test system: OVCAR-5 ovarian
# [5] = test system: SF-268 CNS
# [6] = test system: NCI-H522 lung
# [7] = test system: A549 NSCLC
# [8] = test system: IGROV1 ovarian
# [9] = test system: EKVX NSCLC
# [10] = test system: SK-OV-3 ovarian
Structure (SMILES),TGI [1] [µM],TGI [2] [µM],TGI [3] [µM],TGI [4] [µM],TGI [5] [µM],TGI [6] [µM],TGI [7] [µM],TGI [8] [µM],TGI [9] [µM],TGI [10] [µM],GI50 [1] [µM],GI50 [2] [µM],GI50 [3] [µM],GI50 [4] [µM],GI50 [5] [µM],GI50 [6] [µM],GI50 [7] [µM],GI50 [8] [µM],GI50 [9] [µM],GI50 [10] [µM]
O=C(Cc1nc2ccccc2s1)C(=O)Nc1ccccc1C(F)(F)F,> 100,> 100,> 100,> 100,> 100,> 100,> 100,> 100,> 100,> 100,–,–,–,–,–,–,–,–,–,–
Cn1cnc2nc(Cl)nc(Cl)c21,12.6,24.8,7.09,19.9,38.2,3.26,> 100,37.7,34.8,> 100,0.365,7.84,2.39,3.56,3.22,1.17,3.68,2.47,13.6,4.32
CN1CCN(Cc2ccc(NC(=O)c3cncc(C#Cc4c(N)ncc5ccc(F)cc45)c3)cc2C(F)(F)F)CC1,0.789,1.69,1.39,1.27,2.43,11.5,6.21,6.43,10.6,13.6,0.126,0.694,0.642,0.524,0.783,1.75,0.96,0.369,2.83,5.96
Cc1nc2cc(NC(=O)CN3CCN(CCN4C(=O)c5cccc6cccc(c56)C4=O)CC3)ccc2s1,19.6,> 100,25.4,> 100,24.9,13.8,19.2,> 100,> 100,> 100,3.39,5.83,5.46,14.1,5.01,3.01,4.14,6.05,7.88,7.65
Nc1nc(N)c2nn(-c3ccc(C(=O)O)cc3)nc2n1,> 100,> 100,> 100,> 100,> 100,> 100,> 100,> 100,> 100,> 100,–,–,–,–,–,–,–,–,–,–
Nc1n[nH]c(=O)c2c1c(Br)cn2C1OC(CO)C(O)C1O (centres undefined),> 100,> 77.9,10.3,44,55.4,25.2,> 100,> 100,39.5,> 100,–,–,–,–,–,–,–,–,–,–
CC(=O)OC1C(OC/C2=C/C3[C@@H](C(C)C)CC=C(C)[C@@H]3CC(OC(=O)/C=C/c3cn(C)cn3)[C@]3(C)C=C[C@@]2(O)O3)OCC(O)C1O (some centres undefined),> 50,> 50,0.0741,–,> 50,–,> 50,> 50,> 50,–,0.0124,0.0188,0.0149,0.0207,0.0336,0.015,0.0206,0.0737,0.0707,0.0132
COc1cc(C2C(C(=O)Nc3ccc(Cl)c(Cl)c3)=C(C)NC(C)=C2C(=O)Nc2ccc(Cl)c(Cl)c2)ccc1O,31.7,28.7,12.8,38.8,30.8,14.7,31.5,42,28.1,34.5,–,–,–,–,–,–,–,–,–,–
C=CC(=O)N1CC[C@@H](Oc2nc(Nc3ccc(N4CCC(N5CCN(C)CC5)CC4)cc3)c(C(N)=O)nc2CC)C1,> 100,> 100,> 100,> 100,> 100,> 100,> 100,> 100,> 100,> 100,> 100,> 100,> 100,> 100,> 100,> 100,> 100,> 100,> 100,> 100
COc1cc2c(cc1Nc1nc(Nc3ccsc3C(N)=O)c3cc[nH]c3n1)N(C(=O)CN(C)C)CCC2,0.681,3.67,3.34,3.66,10.6,2.19,3.92,8.36,6.35,4.89,< 0.0025,0.0558,0.612,0.109,1.15,0.507,0.636,1.79,0.551,1.18
N#Cc1ccccc1C#C/C=C\C#Cc1cnccn1,> 100,> 82.3,> 74.1,> 49.9,> 100,> 65.9,> 95,> 100,> 100,> 100,8.72,26.5,> 37,6.09,48.9,18,29.8,38.1,44.1,52.7
COc1cc(C2C3=C(COC3=O)N(CCO)c3cc4c(cc32)CCC4)cc(OC)c1OC (centres undefined),–,> 32.5,0.141,> 32.5,–,0.212,> 32.5,0.232,> 32.5,0.366,0.0975,–,0.0446,0.164,0.0934,0.041,0.13,0.0732,1.12,0.0978
COc1ccc(N2CCN(CC(=O)N3CCN(c4nnc(-c5ccc(Cl)cc5)c(-c5ccc(Cl)cc5)n4)CC3)CC2)cc1,43.2,> 100,23.7,> 100,> 100,> 100,> 100,> 100,> 100,> 100,4.03,18.9,3.98,> 100,> 100,9.2,11.8,16,> 100,> 100
O=C1OC2C(O)COC2(OCc2c[nH]c3ccccc23)C1O (centres undefined) (tested in a mixture with another compound),> 100,> 100,> 100,> 100,> 100,> 100,> 100,> 100,> 100,> 100,–,–,–,–,–,–,–,–,–,–
